Data on five compounds can be found in patent US7754685B2, “Methods and pharmaceutical compositions for the treatment and prevention of hepatitis C infection” (Scynexis, Inc., priority 2005, dated 2010).

pEC50, pIC50: −log10 of the molar value. Where two headings read alike, the source gives them in different places. Where only a bound is given, the exact number is not on record here.

The test system of data set [1] is Madin-Darby bovine kidney (MDBK) cells. The experiment in a line: BVDV drug-drug combination assay, cytotoxicity to target cells. Type of data set: cell-based. Particulars: in combination with IFN-α. Here is the method:
Phenazine methosulfate (PMS) solution was prepared at 0.15 mg/mL in PBS and stored in the dark at −20° C. XTT/PMS stock was prepared immediately before use by adding 40 μL of PMS per ml of XTT solution. Fifty microliters of XTT/PMS was added to each well of the plate and the plate was reincubated for 4 hours at 37° C. Plates were sealed with adhesive plate sealers and shaken gently or inverted several times to mix the soluble formazan product and the plate was read spectrophotometrically at 450/650 nm with a Molecular Devices Vmax plate reader.

Data set [2] relates to Bovine Viral Diarrhea Virus (BVDV), NADL strain. The experiment in a line: BVDV cytopathic effect drug-drug combination assay in MDBK cells (XTT), antiviral. Type of data set: cell-based. To be noted: in combination with IFN-α.
Data set [3] concerns HCV. To be noted: interferon as single agent or with ribavirin; cited from earlier work.
Data set [4] relates to human hepatoma cell line ET. The experiment in a line: HCV RNA replicon drug-drug combination, cytotoxicity volume. To be noted: in combination with Compound 3; FIG. 3B. As to the method:
(§1) The HCV RNA replicon antiviral evaluation assay was utilized to examine the efficacy and cytotoxicity of two compounds (e.g., Drug 1 and Drug 2) in combinations of five versus nine half-log concentrations. The assay was performed using a microtiter plate format for allocation of media, drug, cells, and virus. […] Cells were processed 72 hr later when the cells were still sub-confluent. […] The cytotoxicity was evaluated as the concentration of the drug that reduced cell numbers as described in Example 2.
(§2) Compounds and combinations were evaluated in the HCV replicon assay described in Example 5 with changes noted below.
(§3) Effects of the drug combinations were calculated based on the activity of each compound when tested alone. The expected additive antiviral protection was subtracted from the experimentally determined antiviral activity at each combination concentration resulting in a positive value (synergy), a negative value (antagonism), or zero (additivity). The results of the combination assays are presented three dimensionally at each combination concentration, yielding a surface of activity extending above (synergy) or below (antagonism) the plane of additivity. The volume of the surface is calculated and expressed as a synergy volume (in units of concentration times concentration times percent; e.g. μM2%, nM2%, nMμM %, etc.) calculated at the 95% confidence interval.

For data set [5], the system named is human hepatoma cell line ET. To be noted: for IC90: read-out: Cytotoxicity IC90.
Experimental: The compounds were dissolved in DMSO at five half-log concentrations each, ranging from either 0.02 to 2.0 μM, 0.03 to 3 μM, 2.0 to 20 μM, or 1 to 100 μM. Subconfluent cultures of the ET line were plated out into 96 well plates dedicated for the analysis of cell numbers (cytotoxicity) or antiviral activity and the next day the compounds were added to the appropriate wells. The cells were processed 72 h later when the cells were still subconfluent. […] Cytotoxicity was expressed as IC50 and IC90, the concentration of compound that inhibited cell viability by 50% and 90%, respectively. Compound IC50 and IC90 values were calculated using a colorimetric assay as an indication of cell numbers and cytotoxicity. […] Cyclosporine was also tested by way of comparison.
For single-compound assays, the compounds were dissolved in DMSO at five half-log concentrations each, ranging from either 0.02 to 2 μM or 0.2 to 20 μM. Compound EC50 and EC90 values, as well as IC50 and IC90 values, were determined according to Example 2. […] Cyclosporine A was also tested.
In data set [6] the test system is HCV RNA replicon ET. The experiment in a line: HCV RNA replicon drug-drug combination (checkerboard, MacSynergy II) antiviral synergy. The data set is classed as cell-based. As to the method:
Compounds and combinations were evaluated in the HCV replicon assay described in Example 2 with changes indicated below.
as §1
Compounds of this invention were tested as “Drug 2” at nine concentrations between 0.0078 to 2.0 μM. Interferon-alpha (Sigma) was tested as Drug 1 at 0.005 to 0.5 international units per mL (IU/mL). The data obtained from these checkerboard assays were analyzed with the MacSynergy II (v2.01) (Prichard & Shipman, 1990, Antiviral Res. 14:181-205) and Delta Graph (v1.5d) programs. Each data point used to create three-dimensional plots (FIGS. 1A-1C) was derived from the result of triplicate samples. The statistical relevance of the data was analyzed and plotted at one of three confidence levels (68%, 95% or 99%) to display combinatorial results as additive, synergistic or antagonistic.
Effects of the drug combinations were calculated based on the activity of each compound when tested alone. The expected additive antiviral protection was subtracted from the experimentally determined antiviral activity at each combination concentration resulting in a positive value (synergy), a negative value (antagonism) or zero (additive). […] Slightly synergistic activity and highly synergistic activity have been operationally defined as yielding synergy volumes of 50-100 and >100, respectively.
as §2, §2, §3
A general note: A replicon is a self-replicating genome or part of one, used to study replication in cells.

For data set [7], the system named is HCV RNA replicon ET. The experiment in a line: HCV RNA replicon assay in ET cell line, luciferase (LUC) endpoint, antiviral activity. Type of data set: cell-based. To be noted: Hepatitis C virus; Example 6 (2′-C-methyl-cytidine combination experiment), single compound; read-out: EC50 of compound alone. Here is the method:
The compounds of the present invention were tested for activity against HCV using the methods adapted from those described by Kriger et al., 2001, Journal of Virology, 75:4614-4624, Pietschmann et al., 2002, Journal of Virology 76:4008-4021, and using HCV RNA constructs as described in U.S. Pat. No. 6,630,343. The contents of these references are hereby incorporated by reference in their entireties.
Compounds were examined in the human hepatoma cell line ET (lub ubi neo/ET), a HCV RNA replicon containing a stable luciferase (LUC) reporter. The HCV RNA replicon ET contains the 5′ end of HCV (with the HCV Internal Ribosome Entry Site (IRES) and the first few amino acids of the HCV core protein) which drives the production of a firefly luciferase (LUC), ubiquitin, and neomycin phosphotransferase (NeoR) fusion protein. Ubiquitin cleavage releases the LUC and NeoR proteins. The EMCV IRES element controls the translation of the HCV, […] NS3-NS5. The NS3 protein cleaves the HCV polyprotein to release the mature NS3, NS4A, NS4B, NS5A and NS5B proteins that are required for HCV replication. At the 3′ end of the replicon is the authentic 3′ NTR of HCV.
Cyclosporine A was also tested.

The mark [8] stands for this setting: read-out: Cytotoxicity IC50, Example 2, ET cells, 72 h, colorimetric assay.
Where [9] appears, read: Example 2, ET cells, 72 h, colorimetric assay.
[10] abbreviates: read-out: IC50 of compound alone (cytotoxicity), Example 5 (IFNα combination experiment), single compound.
Where [11] appears, read: in combination with 2′-C-methyl-cytidine, 95% confidence interval.
[12] abbreviates: in combination with IFNα, 95% confidence interval.

In the case of `CC=CCC(C)C(O)C1C(=O)NC(CC)C(=O)N(C)C(OCCN(C)C)C(=O)N(C)C(CC(C)C)C(=O)NC(C(C)C)C(=O)N(C)C(CC(C)C)C(=O)NC(C)C(=O)NC(C)C(=O)N(C)C(CC(C)C)C(=O)N(C)C(CC(C)C)C(=O)N(C)C(C(C)C)C(=O)N1C` (stereo not shown) [C, 3-(2-N,N-dimethylaminoethoxy)cyclosporin], the “cytotoxicity interaction of the combination” value in data set [1] is “Antagonistic cytotoxicity”. Moreover, in data set [2], the “drug interaction, anti-BVDV” value is recorded as “Additive”.
In the case of interferon, the “share of the subject population in which the virus is eradicated” value in data set [3] is listed as 33-46%.
A word on the pIC50: it is the IC50 on a negative log10 scale, so that one unit is a factor of ten. Broadly, the IC90 is the concentration needed for an effect of 90%. Turning to `CC=CCC(C)C(O)C1C(=O)NC(CC)C(=O)N(C)C(SCCN(C)C)C(=O)N(C)C(CC(C)(C)O)C(=O)NC(C(C)C)C(=O)N(C)C(CC(C)C)C(=O)NC(C)C(=O)NC(C)C(=O)N(C)C(CC(C)C)C(=O)N(C)C(CC(C)C)C(=O)N(C)C(C(C)C)C(=O)N1C` [Compound O, 3-[(R)-2-(N,N-dimethylamino)ethylthio-Sar]-4-(gamma-hydroxymethylleucine)cyclosporin], the “cytotoxicity interaction of the combination” value in data set [4] was “antagonistic cytotoxicity”; in data set [1] it was “Antagonistic cytotoxicity”. The pIC50 in data set [5] (setting [8]) was 4.87; in data set [5] (setting [10]), < 5.70; in data set [5] (read-out: IC50 of compound alone (cytotoxicity), Example 6, single compound) it was < 5.70. For the same compound, in data set [5] (setting [9]), the IC90 is > 20000 nM. In addition, the antiviral synergy volume worked out at 228 μM^2% in data set [6] (setting [11]) and 122 IU/mLμM % in data set [6] (setting [12]). Also, the “drug interaction (antiviral) of the combination” value is “highly synergistic (Slightly synergistic activity and highly synergistic activity have been operationally defined as yielding synergy volumes of 50-100 and >100, respectively)” in data set [6] (setting [11]); “additive or mildly synergistic” in data set [6] (in combination with Compound 3 (HCV NS3-4A protease inhibitor), FIG. 3A); “highly synergistic (Slightly synergistic activity and highly synergistic activity have been operationally defined as yielding synergy volumes of 50-100 and >100, respectively)” in data set [6] (setting [12]).
In the case of `CC=CCC(C)C(O)C1C(=O)NC(CC)C(=O)N(C)C(OC)C(=O)N(C)C(CC(C)(C)O)C(=O)NC(C(C)C)C(=O)N(C)C(CC(C)C)C(=O)NC(C)C(=O)NC(C)C(=O)N(C)C(CC(C)C)C(=O)N(C)C(CC(C)C)C(=O)N(C)C(C(C)C)C(=O)N1C` (stereo not shown) [Compound T, 3-(methoxy)-4-(gamma-hydroxymethylleucine)cyclosporin], the pIC50 in data set [5] (setting [8]) and in data set [5] (setting [10]) was < 5.70 each time. Moreover, in data set [5] (setting [9]), the IC90 was > 2000 nM. In addition, the antiviral synergy volume in data set [6] (setting [12]) was 6 IU/mLμM %.
Broadly, the pEC50 is the negative decadic logarithm of the EC50, by convention in mol/L. For the compound `C[C@@]1(O)[C@H](O)[C@@H](CO)O[C@H]1n1ccc(N)nc1=O` [2′-C-methyl-cytidine, reference compound], in data set [7], the pEC50 was 6.12.
